The text below walks through data of patent US6538112B2, “Hybridomas and monoclonal antibodies for an anticoagulant test” (Merck & Co., Inc., priority 1997, dated 2003).

“Also recorded” adds a separate entry of the source. Structures can show the parent of a compound that is named as a salt. Where two headings read alike, the source gives them in different places. Bridge positions count the residues as written; N and C are the ends. Ends that are not written are not given here. Peptide text beside a SMILES is read from it. * marks the point of attachment. Benzoyl(4-I) = O=C(c1ccc(I)cc1)*

In assay [1] the target is T1, GPIIb/IIIa on gel filtered platelets (Homo sapiens, UniProt P05106+P08514).
T1 construct: Gel filtered platelets (GFP) were prepared from blood anticoagulated with 13 mM trisodium citrate; endogenous in cells; host or cells: gel filtered platelets from citrated blood
T1 sequence (P08514 32-887 limits assumed): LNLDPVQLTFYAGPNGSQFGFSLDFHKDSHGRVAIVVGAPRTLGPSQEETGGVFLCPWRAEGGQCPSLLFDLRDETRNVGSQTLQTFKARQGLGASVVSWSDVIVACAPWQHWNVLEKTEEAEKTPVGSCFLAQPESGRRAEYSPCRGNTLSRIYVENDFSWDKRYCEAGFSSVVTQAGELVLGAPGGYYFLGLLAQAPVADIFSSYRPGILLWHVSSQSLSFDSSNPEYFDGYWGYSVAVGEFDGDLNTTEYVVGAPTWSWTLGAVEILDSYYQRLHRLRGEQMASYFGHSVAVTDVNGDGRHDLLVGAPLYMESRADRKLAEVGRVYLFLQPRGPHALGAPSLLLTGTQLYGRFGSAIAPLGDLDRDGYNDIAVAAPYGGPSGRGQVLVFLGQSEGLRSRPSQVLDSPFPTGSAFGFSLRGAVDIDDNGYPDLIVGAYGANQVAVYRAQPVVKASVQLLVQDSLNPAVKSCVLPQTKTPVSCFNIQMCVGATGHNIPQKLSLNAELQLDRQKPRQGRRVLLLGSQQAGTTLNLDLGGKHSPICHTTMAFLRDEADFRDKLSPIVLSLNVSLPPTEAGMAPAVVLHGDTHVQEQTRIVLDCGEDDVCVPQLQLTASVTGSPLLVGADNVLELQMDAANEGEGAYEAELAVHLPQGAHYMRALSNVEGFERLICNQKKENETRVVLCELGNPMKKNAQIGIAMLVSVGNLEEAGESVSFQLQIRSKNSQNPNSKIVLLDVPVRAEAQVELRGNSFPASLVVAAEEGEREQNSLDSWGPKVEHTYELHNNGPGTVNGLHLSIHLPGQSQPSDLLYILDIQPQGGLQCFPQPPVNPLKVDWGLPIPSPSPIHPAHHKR
T1 sequence (P08514 891-1039 partner limits assumed): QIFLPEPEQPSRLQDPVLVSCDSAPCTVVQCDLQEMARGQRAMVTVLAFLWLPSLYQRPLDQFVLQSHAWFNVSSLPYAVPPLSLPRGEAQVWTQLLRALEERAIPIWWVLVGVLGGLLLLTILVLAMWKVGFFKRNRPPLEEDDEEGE
T1 sequence (P05106 27-788): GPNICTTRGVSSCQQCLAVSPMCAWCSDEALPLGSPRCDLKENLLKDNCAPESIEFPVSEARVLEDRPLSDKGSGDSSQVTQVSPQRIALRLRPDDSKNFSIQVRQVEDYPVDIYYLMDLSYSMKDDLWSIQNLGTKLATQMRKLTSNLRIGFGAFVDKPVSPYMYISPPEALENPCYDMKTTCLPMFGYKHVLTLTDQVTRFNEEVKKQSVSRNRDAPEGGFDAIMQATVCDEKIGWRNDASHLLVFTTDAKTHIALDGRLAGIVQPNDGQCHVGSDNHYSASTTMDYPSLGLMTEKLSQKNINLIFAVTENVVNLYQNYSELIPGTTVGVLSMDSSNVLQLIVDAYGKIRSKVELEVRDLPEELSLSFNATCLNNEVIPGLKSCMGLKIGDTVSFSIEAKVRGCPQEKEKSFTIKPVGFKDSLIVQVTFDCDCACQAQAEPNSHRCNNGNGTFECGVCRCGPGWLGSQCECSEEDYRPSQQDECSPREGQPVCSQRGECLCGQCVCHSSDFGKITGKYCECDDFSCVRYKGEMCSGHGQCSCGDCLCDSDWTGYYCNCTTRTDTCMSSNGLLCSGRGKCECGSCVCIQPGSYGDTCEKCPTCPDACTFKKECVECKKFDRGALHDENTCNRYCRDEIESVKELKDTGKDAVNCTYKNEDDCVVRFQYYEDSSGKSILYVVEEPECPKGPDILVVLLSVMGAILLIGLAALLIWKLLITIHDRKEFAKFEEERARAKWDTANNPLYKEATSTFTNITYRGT
The assay can be described thus: Flow cytometry binding assay on platelets: effect of receptor occupancy or ADP activation on antibody binding. The following applies: GFP pretreated with 1 μM ligand, 100 nM antibody. The procedure:
The platelet bound antibodies were separated from free antibodies by centrifugation in the presence of 100 μM PGE1 followed by resuspension in flow cytometry buffer containing 100 nM of FITC conjugated goat anti-mouse antibody, incubated for 1 hour at room temperature and analyzed using flow cytometry. The light scatter and fluorescence intensity of 20000 cells was collected using logarithmic gain.

In assay [2] the target is T2, purified human platelet αIIbβ3 (Homo sapiens, UniProt P05106+P08514).
T2 construct: detergent solubilized platelet lysates were passed over a Concanavalin A-Sepharose 4B column; from tissue; host or cells: human platelets (given as outdated human plasma; platelet lysates)
T2 sequence (P08514 32-887 limits assumed): as the sequence (P08514 32-887 limits assumed) above
T2 sequence (P08514 891-1039 partner limits assumed): as the sequence (P08514 891-1039 partner limits assumed) above
T2 sequence (P05106 27-788): as the sequence (P05106 27-788) above
The assay can be described thus: Disassociation constants of GP IIb/IIIa antagonists on purified human αIIbβ3. Type of assay: binding. The procedure:
GPIIb/IIIa was purified from outdated human plasma using a slight modification of the procedure described by Kouns et al. (Kouns et al. (1992) J. Biol. Chem. 267, 18844-18851). Briefly, detergent solubilized platelet lysates were passed over a Concanavalin A-Sepharose 4B column (Sigma Chemicals, St. Louis, Mo.), followed by elution with methyl-α-D mannopyranozide (Sigma Chemical, St. Louis, Mo.). […] All fractions were analyzed for purity by SDS-PAGE electrophoresis.

The target of assay [3] is T3, GPIIb/IIIa activation state on gel filtered platelets (Homo sapiens, UniProt P05106+P08514).
T3 construct: Gel filtered platelets (GFP) were prepared from blood anticoagulated with 13 mM trisodium citrate; endogenous in cells; host or cells: gel filtered platelets from citrated blood
T3 sequence (P08514 32-887 limits assumed): as the sequence (P08514 32-887 limits assumed) above
T3 sequence (P08514 891-1039 partner limits assumed): as the sequence (P08514 891-1039 partner limits assumed) above
T3 sequence (P05106 27-788): as the sequence (P05106 27-788) above
The assay can be described thus: PAC-1 binding to gel filtered platelets. It is filed as cell-based. The following applies: PGE1, PGI2 and apyrase prior to antibody or agonist. The procedure: PAC-1 (Shattil et al. (1985) J. Biol. Chem. 260, 11107-11114) binding studies were done using 20 μg/mL FITC conjugated PAC-1 (University of Pennsylvania Cell Center (Philadelphia, Pa.)) diluted in PBS. 25 μL of resting 1×10^8 GFP/mL, in flow cytometry buffer containing 1 mM CaCl, was combined with 100 nM of antibody and FITC conjugated PAC-1 to a final volume of 100 μL. The sample was incubated for 1 hour at room temperature. Following incubation the cells were diluted to 300 μL in flow cytometry buffer immediately before flow cytometry analysis. Contol PAC-1 binding to activated platelets was tested by first activating the receptors with either 1 nM thrombin or 20 μM ADP. Some samples were pretreated with activation inhibitors 100 μM PGE1, 20 μg/ml apyrase (Sigma Chemical Company (St. Louis, Mo.)) and 10 μM PGI2 (BioMol (Plymouth Meeting, Pa.)) prior to antibody addition or platelet activation with ADP or thrombin.

Assay [4] has as its system gel filtered platelets. Kind of assay: Platelet aggregation (lumiaggregometry). It is filed as cell-based. As for the experimental part:
Aggregation by platelets stir red (1000 rpm) at 37° C. was assayed using the Chrono-Log Lumiaggregometer. Antibody mAb3-758, mAb10-758 or mAb15-758 were added to 250 μL of 2×10^8 GFP/mL, in platelet buffer containing 2 mM CaCl, in the absence or presence of 20 μM ADP followed by the addition of 200 μg/mL fibrinogen. In some experiments PGE1, apyrase and PGI2 were included as activation inhibitors. Changes in light transmittance were recorded and transferred to Microsoft Excel for data plotting. For the determination of EC50 and IC50 of mAb3-758 and mAb10-758, respectively, control aggregations Pusing ADP alone were performed with each set of concentrations tested.

The mark [5] stands for this setting: activated form of purified human αIIbβ3, read-out: Activated Form KD-A.
[6] abbreviates: unactivated form of purified human αIIbβ3, read-out: Unactivated Form KD-B.
Setting [7] is: Activated Form KD-A, activated form of purified human αIIbβ3.
Setting [8] is: Unactivated Form KD-B, unactivated form of purified human αIIbβ3.

Turning to `N=C(N)c1ccc(C(=O)NC(Cc2ccc(O)cc2)C(=O)N2CCC(OCC(=O)O)CC2)cc1` (stereo not shown) [RO-44-9883, {1-[2-(4-carbamimidoyl-benzoylamino)3-(4-hydroxy-phenyl)propionyl]-piperidin-4-yloxy}-acetic acid], the “induction of the neo-epitope recognized by anti-LIBS mAb10-758 and mAb15-758” value in assay [1] was “induced; also recorded: induce the neo-epitope”. The Kd in assay [2] (setting [5]) turned out to be 0.96 nM; in assay [2] (setting [6]) it was 6.3 nM.
In the case of “ECESGPCCRNCKFLKEGTICKRARGDDMDDYCNGKTCDCPRNPHKGPAT (disulfide 2-11, 7-32, 8-37, 20-39 (inferred)) [echistatin]”, the Kd in assay [2] (setting [7]) is 4.6 nM; in assay [2] (setting [8]), 4.9 nM.
Turning to `O=C(O)COc1ccc2c(c1)CN(C(=O)c1ccc(N3CCNCC3)cc1)CC2` [compound A, 4-(N-piperazine)benzoyl-(N-1,2,3,4-tetrahydroisoquinoline-7-yl)oxy-acetic acid], the Kd in assay [2] (setting [5]) and in assay [2] (setting [6]) was more than 100000 nM throughout.
In the case of `Nc1ncnc2c1ncn2[C@@H]1O[C@H](COP(=O)(O)OP(=O)(O)O)[C@@H](O)[C@H]1O` [ADP], the “PAC-1 binding after pretreatment with activation inhibitors” value in assay [3] is given as “completely blocked”. Moreover, the “platelet aggregation response stimulated by the substance alone” value in assay [4] (100 nM mAb10-758, 1 μM mAb15-758, 20 μM ADP, control platelets) worked out at 69.6%. Moreover, in assay [4] (10 μM of antagonist), the “aggregation response following incubation with fibrinogen receptor antagonist” value turned out to be 2.5%. Also, the EC50 in assay [4] (GFP with fibrinogen, read-out: EC50 ADP stimulated platelet aggregation) was determined as 1700 nM. Moreover, the “aggregation response of platelets pretreated with activation inhibitors” value in assay [4] (mixture of PGE1, PGI2 and apyrase, 100 nM mAb10-758, 1 μM mAb15-758) came to 3.3%. Moreover, the “aggregation response in control platelets of the antagonist experiment” value in assay [4] (no antagonist) was 69.6%.
`C[C@H](CC(=O)O)NC(=O)CN1CCC[C@@H](CCC2CCNCC2)C1=O` [compound C, N-[3(R)-[2-(Piperidin-4-yl)ethyl]-2-piperidon-1-yl] acetyl-3(R)-methyl-β-alanine]: the figures for the Kd in assay [2] (setting [5]) and in assay [2] (setting [6]) were 4.5 nM and 610 nM, respectively.
For `O=C(NC[C@H](NS(=O)(=O)c1cccnc1)C(=O)O)c1cc2cc(CCC3CCNCC3)sc2s1` [compound D, 2-(S)-(3-pyridylsulfonyl)amino-3-N-[5-[2-(4-piperidinyl)ethyl]-thienothiophene-2-carboxamide]propionic acid], in that order: 0.03 nM and 2.4 nM.
Consider `N=C(N)NCCC[C@@H]1NC(=O)[C@@H]2CCCN2C(=O)[C@H](CC(N)=O)NC(=O)[C@@H](NC(=O)c2ccc(I)cc2)CSSC[C@@H](C(=O)O)NC(=O)[C@H](CC(=O)O)NC(=O)CNC1=O` [compound B, cyclo-4-I-benzoyl-(Cys-Asn-Pro-Arg-Gly-Asp-Cys)-OH HOAc salt] ({Benzoyl(4-I)}-CNPRGDC-OH; disulfide 1-7 (inferred)), for which the Kd in assay [2] (setting [7]) was determined as 1.5 nM; in assay [2] (setting [8]), 60 nM.
